The source of these data is EP4461287A1, “SKIN CARE COSMETIC COMPOSITION” (Creaciones Aromáticas Industriales, S.A., priority 2023, dated 2024).

Data set [1] is described as follows: Cutaneous penetration by Franz cell diffusion, HPLC quantification in the receptor solution. It is filed as in vitro ADME. The following applies: 20 h, pig skin, 32°C, receptor PBS pH 7.4, 25 µl applied. As for the experimental part:
Cutaneous penetration of free acetylhexapeptide-8 and encapsulated acetylhexapeptide-8 (nanocapsule of the present invention) was determined by means Franz cells diffusion. The pig skin samples were used to carry out the experiment, cut into circles 2.5 cm in diameter. The skin was assembled on the receptor compartment of a Franz diffusion cell system with the stratum corneum facing up towards the donor compartment. As a solution for the receptor, 18 ml of phosphate buffered saline (PBS) pH 7.4 stirred by a magnetic rod at 700 rpm were utilized. A 25 µl aliquot of each of the assay formulations was applied on the pig skin. The Franz diffusion cells were kept at 32°C, and after 20 h of incubation, the receptor solution was analyzed by HPLC (I=220 nm) to quantify the amount of acetylhexapeptide-8 was penetrated the skin. Triplicates of the assay were done.
HPLC analysis was performed utilizing a Waters 996 instrument with diode array detector equipped with Waters 2695 separations module and Millenium software; a C18 4.6x150 mm 5 µm reversed phase column by Waters was used. […]
The quantification of acetylhexapeptide-8 in the fluid (PBS) of the receptor chamber was evaluated through HPLC at 20 hours after application of 25 µL of the two solutions on the pig skin.

For a further data set, the system named is chromaffin cells. The data set is described as follows: Inhibition of Ca2+-induced catecholamine ([3H]noradrenaline) release in digitonin-permeabilized chromaffin cells. It is filed as cell-based, bovine. As for the experimental part: Chromaffin cell cultures were prepared from bovine adrenal glands by collagenase digestion and then separated from debris and erythrocytes by centrifugation. Briefly, the cells were maintained in monolayer cultures and used between the third and sixth day after plating. All the experiments were carried out at 37°C. Secreted neurotransmitter [^3H]noradrenaline was determined in cells permeabilized with digitonin. Neurotransmitter (catecholamines) release was stimulated by addition of 10 µM) Ca^2+.
To evaluate the enhancement of this activity of encapsulated Acetylhexapeptide-8, the inhibitory capacity on Ca^2+-induced catecholamine release was measured in digitonin-permeabilized chromaffin cells culture.
In particular, the activity of the free peptide free (acetylhexapeptide-8), the peptide encapsulated in Policaprolactone-Chitosan (Acetylhexapeptide-8@PCL-Chi) and the peptide encapsulated with sodium hyaluronate (HA) in PCL-Chi-HA (Acetylhexapeptide-8-HA@PCL-Chi-HA) (present invention) were compared.

The test system of data set [2] is women with facial wrinkles. The data set is described as follows: Clinical anti-wrinkle study, preorbital area, 3D skin topography / confocal microscopy of silicone impressions. The format is in vivo. The following applies: O/W emulsion twice a day; for Wrinkles reduction (%) 4 wrinkles: at 4 weeks. As for the experimental part:
The clinical study was conducted on 40 women with facial wrinkles between 50 and 60 years of age. All volunteers were healthy and without any systemic or skin disease.
Wrinkles were measured using a topographic skin measurement device, a Bio 3D Structure Light Scanner technology, which performs a 3D reconstruction of the image in silicone (ANTERA 3D® and software (Miravex, Ireland).
The patients were divided into two groups, which applied the assigned O/W emulsions twice a day for two months. One group (1) applied a free Acetylhexapeptide-8 emulsion on one side of the preorbital area and an emulsion with Acetylhexapeptide-8 encapsulated in PCL and chitosan on the other side. The second group applied an O/W emulsion with free HA on one area of a preorbital area and another of the cosmetic composition of the present invention (Acetylhexapeptide-8, HA, PCL and chitosan) on the contralateral side. All participants were asked not to use any cosmetics containing ingredients that could interfere with the wrinkle status of the skin during the study period, nor were they subjected to exposure to direct sunlight.
Before the first application, at 4 and 8 weeks of use, silicone impressions were taken and processed by confocal laser scanning microscopy to evaluate the progress of wrinkles. The maximum depth values within the analysis area were taken as representative values of wrinkles, and the percentage reduction of these values before and after application were calculated as the percentage improvement of skin wrinkles.
In this study, measurements of the main roughness parameters such as mean roughness volume and area affected by roughness were obtained. The average roughness volume is the average (three-dimensional) dimension of the depression of the cutaneous microrelief measured in mm^3. The area affected by roughness is the roughness portion of the measured skin area (two-dimensional, measured in mm^2). The improvement was calculated as the percentage change between the images taken before the treatments and two months […].
Reflection mode confocal microscopy and three-dimensional analysis were used to evaluate the different parameters.
For this purpose, the 40 female volunteers were divided into two groups, and each group applied twice daily for 2 months two assigned emulsions, one to each eye in the same preorbital area. Before treatment, at 4 and 8 weeks, the decrease in wrinkles was quantified by 3D images analyzed by confocal microscopy.

Data set [3] in a line: Moisturizing efficacy: transepidermal water loss (TEWL) study by corneometry on forearms of volunteers. The format is in vivo. The following applies: forearm, women 45-50 years. As for the experimental part: The transpidermal water loss (TEWL) study by corneometry was performed to compare the moisturizing activity of the composition of the present invention and its main components.
The assay was carried out on 20 women between the ages 45 and 50 years. None of the patients had suffered or had any medical history or relevant skin pathologies.
The volunteers were divided into four groups. Daily, for 7 days, the assigned sample was applied to one of the forearms of each group (group 1 sample with free sodium hyaluronate, group 2 sample with free Acetylhexapeptide-8, group 3 sample with free sodium hyaluronate and Acetylhexapeptide-8 and group 4 sample with complete encapsulation (Acetylhexapeptide-8, sodium hyaluronate, polycaprolactone and chitosan). The opposite forearm of each volunteer was the control.
Measurements were taken 2 hours and 7 days after the first application. Epidermal capacitance was evaluated using a CM 825 Corneometer, which allows quantification of surface humidity variations. Measurements were taken in an air-conditioned room (temperature 23°C, relative humidity 34.5%). […]
This trial compared the moisturizing capacity of free HA, free Acetylhexapeptide-8, free HA+Acetylhexapeptide-8 and the composition of the present invention (Acetylhexapeptide-8-HA@PCL-Chi-HA) by measuring the skin loss of water on the forearm of the volunteers analyzed. […]

As to “Acetylhexapeptide-8 [Free Acetylhexapeptide-8]”, the “% Penetration” value in data set [1] was determined as 14%. In addition, the “decrease in total catecholamine exocytosis / inhibition of the release of neurotransmitters” value with chromaffin cells (Ca2+-induced release, versus control) came to 20%. The “Cathecolamine release (%)” value with chromaffin cells (stimulated with 10 µM Ca2+, 37°C, control = 100) was determined as 80%. The “Wrinkles reduction (%) 4 wrinkles” value in data set [2] was 20.5%; in data set [2] (listed as free Acetylhexapeptide-8), 20%. The “Wrinkles reduction (%) 8 wrinkles” value in data set [2] (at 8 weeks (end of treatment)) came out at 30%. For the same substance, the “Decrease area affected by roughness (%)” value in data set [2] (at 8 weeks) came to 31.2%. For the same substance, in data set [2] (at 8 weeks), the “Roughness volume decrease (%)” value was found to be 35%. In addition, in data set [3] (2 hours after first application, control 16), the “Tewl After 2 hours” value is 15.8 g/m^2h. Further, the “Tewl After 7 days” value in data set [3] (after 7 days of daily application, control 17) turned out to be 16.5 g/m^2h.
